# Read-outs that look alike come from different tables or passages of the source.
# Assays:
# [1] = system: Aspergillus flavus; assay: MIC/MFC broth microdilution (CLSI); details: ATCC204304
# Method: (§1) Antifungal susceptibility was determined by broth microdilution according to the CLSI guidelines described in M27-Ed4 ([16]). […] MFC was determined by back-plating drug-treated cultures from MIC broths onto SDA plates. The MFC was defined as the lowest concentration from which no colonies could be cultured.
# [2] = system: Cryptococcus deuterogattii; assay: checkerboard drug interaction (FICI, MICc);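 on all read-outs here: simplified diagonal checkerboard screen pairing antifungal drugs with FPPS inhibitors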; assay type: cell-based; details: C. deuterogattii; for INH FD (MIC-MICc fold decrease): fold decrease of inhibitor MIC
# Method: (§2) Drug interactions between antifungals and FPPS inhibitors were investigated using a simplified checkerboard diagonal screening method ([45]). […] FICIs were determined according to the Loewe additivity model ([17]).
# [3] = system: Aspergillus flavus; assay: checkerboard drug interaction (FICI, MICc);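 further: simplified diagonal checkerboard screen pairing azole antifungals with FPPS inhibitors, FICI calculated under the Loewe additivity model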; assay type: cell-based; set-up: INH MICc (KET:INH) / INH MICc (FLC:INH): unit not given beside the values; details: A. flavus
# [4] = system: Saccharomyces cerevisiae; assay: checkerboard drug interaction (FICI, MICc); assay type: cell-based; set-up: INH MICc / INH MICc (ITR:INH) / INH MICc (KET:INH) / INH MICc (FLC:INH): unit not given beside the values;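 further: simplified diagonal checkerboard screen pairing antifungals with FPPS inhibitors, FICI calculated under the Loewe additivity model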
# [5] = system: Candida glabrata; assay: checkerboard drug interaction (FICI, MICc);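 on all read-outs here: simplified diagonal checkerboard screen pairing antifungals with FPPS inhibitors, FICI calculated under the Loewe additivity model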; assay type: cell-based; details: C. glabrata; for INH FD (MIC-MICc fold decrease): fold decrease of inhibitor MIC
# Method: as §2
# [6] = system: Cryptococcus deuterogattii; assay: MIC/MFC broth microdilution (CLSI); details: Cryptococcus deuterogattii;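 further: broth microdilution per CLSI M27-Ed4. MFC is the lowest concentration yielding no colonies when MIC broths are subcultured onto SDA plates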
# Method: as §1
# [7] = system: Trichophyton rubrum; assay: MIC/MFC broth microdilution (CLSI); details: Trichophyton rubrum
# Method: as §1
# [8] = system: Cryptococcus neoformans; assay: MIC/MFC broth microdilution (CLSI); details: Cryptococcus neoformans;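 further: susceptibility testing followed the CLSI M27-Ed4 broth microdilution document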
# Method: as §1
# [9] = system: eight fungal species; assay: checkerboard interaction with azoles, summary across the eight species; assay type: cell-based; details: geometric mean MIC in combination with azoles
# Source text: Synergy between lipophilic FPPS inhibitors and azole antifungals was investigated by determining the fractional inhibitory concentration index (FICI) (Fig. 2; Table S1 Fig. S1) ([17]). […]. Derivatives PLA9 and 11, and PDA9, 11, and 12 antagonized azoles in C. albicans, C. neoformans, and C. deuterogattii, yet were largely synergistic in C. glabrata and S. cerevisiae. […].
# [10] = system: HEK-293T cells; assay: MTT reduction cytotoxicity assay; assay type: cell-based; details: Homo sapiens, HEK-293T, 72 h, MTT, 72 h
# [11] = system: Aspergillus fumigatus; assay: checkerboard drug interaction (FICI, MICc); assay type: cell-based;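 further: simplified diagonal checkerboard screen pairing antifungals with FPPS inhibitors against Aspergillus fumigatus, with FICI calculated under the Loewe additivity model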
# Method: as §2
# [12] = system: Saccharomyces cerevisiae; assay: MIC/MFC broth microdilution (CLSI); assay type: cell-based; details: Saccharomyces cerevisiae S288c
# Method: as §1
# [13] = system: Trichophyton rubrum; assay: checkerboard drug interaction (FICI, MICc);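 further: simplified diagonal checkerboard screen pairing azole antifungals with FPPS inhibitors, FICI calculated under the Loewe additivity model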; assay type: cell-based; details: T. rubrum
# Method: as §2
# [14] = system: Cryptococcus neoformans; assay: checkerboard drug interaction (FICI, MICc);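 on all read-outs here: antifungal plus FPPS inhibitor pairs tested against Cryptococcus neoformans by simplified diagonal checkerboard screening, FICI computed under the Loewe additivity model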; assay type: cell-based; details: C. neoformans; for INH FD (MIC-MICc fold decrease): fold decrease of inhibitor MIC
# Method: as §2
# [15] = system: Aspergillus fumigatus; assay: MIC/MFC broth microdilution (CLSI); details: ATCC204305
# Method: as §1
# [16] = system: Candida glabrata; assay: MIC/MFC broth microdilution (CLSI); details: Nakaseomyces glabratus, CBS138;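 further: broth microdilution following CLSI M27-Ed4, MFC taken as the lowest drug level yielding no growth once MIC wells were subcultured on SDA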
# Method: as §1
# [17] = system: eight fungal species; assay: MIC/MFC summary across the eight fungal species of Table 1; assay type: cell-based
# Method: The antifungal activity of these compounds was evaluated according to CLSI guidelines ([16]).
# [18] = system: Candida albicans; assay: MIC/MFC broth microdilution (CLSI); assay type: cell-based; details: Candida albicans SC5314
# Method: as §1
# [19] = system: Candida albicans; assay: checkerboard drug interaction (FICI, MICc);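 on all read-outs here: antifungal plus FPPS inhibitor combinations on Candida albicans tested by a simplified diagonal checkerboard screen, with FICI calculated under the Loewe additivity model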; assay type: cell-based; details: C. albicans; for INH FD (MIC-MICc fold decrease): fold decrease of inhibitor MIC
# Method: as §2
# [20] = FLC:INH combination, MIC of the inhibitor in combination with FLC
# [21] = FLC:INH combination, fold decrease of FLC MIC
# [22] = ITR:INH combination, MIC of the inhibitor in combination with ITR
# [23] = ITR:INH combination, fold decrease of ITR MIC
# [24] = KET:INH combination, MIC of the inhibitor in combination with KET
# [25] = KET:INH combination, fold decrease of KET MIC
# [26] = Fractional Inhibitory Concentration Index, fluconazole + inhibitor
# [27] = Fractional Inhibitory Concentration Index, itraconazole + inhibitor
# [28] = Fractional Inhibitory Concentration Index, ketoconazole + inhibitor
# [29] = MIC of the inhibitor in combination with fluconazole
# [30] = MIC of the inhibitor in combination with itraconazole
# [31] = MIC of the inhibitor in combination with ketoconazole
# [32] = MIC-MICc fold decrease of fluconazole, negative = increase
# [33] = MIC-MICc fold decrease of itraconazole, negative = increase
# [34] = MIC-MICc fold decrease of ketoconazole, negative = increase
# [35] = MIC-MICc fold decrease of the inhibitor, with fluconazole
# [36] = MIC-MICc fold decrease of the inhibitor, with itraconazole
# [37] = MIC-MICc fold decrease of the inhibitor, with ketoconazole
smiles,measurement,setting,value
CCCCCCCCCCCN1CCC[C@H]1C(=O)N[C@H](CC(=O)OC)C(=O)OC [dmPDA11],MFC,[1],> 128 µg/mL
same,MIC,[1],> 128 µg/mL
same,FICI,[2]; FLC:INH combination,1.5
same,INH MICc,[2]; [20],32
same,FLC FD (MIC-MICc fold decrease),[2]; [21],2
same,INH FD (MIC-MICc fold decrease),[2]; FLC:INH combination,1
same,FICI,[2]; ITR:INH combination,2
same,INH MICc,[2]; [22],32
same,ITR FD (MIC-MICc fold decrease),[2]; [23],1
same,INH FD (MIC-MICc fold decrease),[2]; ITR:INH combination,1
same,FICI,[2]; KET:INH combination,1.13
same,INH MICc,[2]; [24],32
same,KET FD (MIC-MICc fold decrease),[2]; [25],8
same,INH FD (MIC-MICc fold decrease),[2]; KET:INH combination,1
same,FICI (FLC:INH),[3]; [26],0.75
same,FICI (ITR:INH),[3]; [27],1.01
same,FICI (KET:INH),[3]; [28],0.31
same,INH MICc (FLC:INH),[3]; [29],64
same,INH MICc (ITR:INH),[3]; [30],2
same,INH MICc (KET:INH),[3]; [31],16
same,FLC FD (FLC:INH),[3]; [32],2
same,ITR FD (ITR:INH),[3]; [33],1
same,KET FD (KET:INH),[3]; [34],4
same,INH FD (FLC:INH),[3]; [35],4
same,INH FD (ITR:INH),[3]; [36],128
same,INH FD (KET:INH),[3]; [37],16
same,FICI (FLC:INH),[4]; [26],≥4
same,FICI (ITR:INH),[4]; [27],2
same,FICI (KET:INH),[4]; [28],1.25
same,INH MICc (FLC:INH),[4]; [29],256
same,INH MICc (ITR:INH),[4]; [30],64
same,INH MICc (KET:INH),[4]; [31],64
same,FLC FD (FLC:INH),[4]; [32],-2
same,ITR FD (ITR:INH),[4]; [33],1
same,KET FD (KET:INH),[4]; [34],4
same,INH FD (FLC:INH),[4]; [35],-4
same,INH FD (ITR:INH),[4]; [36],1
same,INH FD (KET:INH),[4]; [37],1
same,FICI,[5]; FLC:INH combination,≥4
same,INH MICc,[5]; [20],32
same,FLC FD (MIC-MICc fold decrease),[5]; [21],-2
same,INH FD (MIC-MICc fold decrease),[5]; FLC:INH combination,1
same,FICI,[5]; ITR:INH combination,1
same,INH MICc,[5]; [22],4
same,ITR FD (MIC-MICc fold decrease),[5]; [23],2
same,INH FD (MIC-MICc fold decrease),[5]; ITR:INH combination,8
same,FICI,[5]; KET:INH combination,2
same,INH MICc,[5]; [24],8
same,KET FD (MIC-MICc fold decrease),[5]; [25],1
same,INH FD (MIC-MICc fold decrease),[5]; KET:INH combination,4
same,MFC,[6],128 µg/mL
same,MIC,[6],16 µg/mL
same,MFC,[7],> 128 µg/mL
same,MIC,[7],16 µg/mL
same,MFC,[8],32 µg/mL
same,MIC,[8],16 µg/mL
same,GM fungal MICc,[9],25.4
same,IC50,"[10]; HEK-293T cells, read-out: IC50",6.19 µg/mL
same,IC50,[10]; read-out: HEK IC50,6.19 µg/mL
same,FICI (FLC:INH),[11]; [26],1.25
same,FICI (ITR:INH),[11]; [27],0.53
same,FICI (KET:INH),[11]; [28],3
same,INH MICc (FLC:INH),[11]; [29],64
same,INH MICc (ITR:INH),[11]; [30],2
same,INH MICc (KET:INH),[11]; [31],128
same,FLC FD (FLC:INH),[11]; [32],4
same,ITR FD (ITR:INH),[11]; [33],2
same,KET FD (KET:INH),[11]; [34],1
same,INH FD (FLC:INH),[11]; [35],1
same,INH FD (ITR:INH),[11]; [36],32
same,INH FD (KET:INH),[11]; [37],-2
same,MFC,[12],128 µg/mL
same,MIC,[12],64 µg/mL
same,FICI (FLC:INH),[13]; [26],≥4
same,FICI (ITR:INH),[13]; [27],2.13
same,FICI (KET:INH),[13]; [28],≥4
same,INH MICc (FLC:INH),[13]; [29],64
same,INH MICc (ITR:INH),[13]; [30],32
same,INH MICc (KET:INH),[13]; [31],128
same,FLC FD (FLC:INH),[13]; [32],2
same,ITR FD (ITR:INH),[13]; [33],8
same,KET FD (KET:INH),[13]; [34],1
same,INH FD (FLC:INH),[13]; [35],-4
same,INH FD (ITR:INH),[13]; [36],-2
same,INH FD (KET:INH),[13]; [37],< -4
same,FICI,[14]; FLC:INH combination,1.5
same,INH MICc,[14]; [20],32
same,FLC FD (MIC-MICc fold decrease),[14]; [21],1
same,INH FD (MIC-MICc fold decrease),[14]; FLC:INH combination,2
same,FICI,[14]; ITR:INH combination,0.75
same,INH MICc,[14]; [22],16
same,ITR FD (MIC-MICc fold decrease),[14]; [23],2
same,INH FD (MIC-MICc fold decrease),[14]; ITR:INH combination,4
same,FICI,[14]; KET:INH combination,3
same,INH MICc,[14]; [24],64
same,KET FD (MIC-MICc fold decrease),[14]; [25],-2
same,INH FD (MIC-MICc fold decrease),[14]; KET:INH combination,1
same,MFC,[15],128 µg/mL
same,MIC,[15],> 128 µg/mL
same,MFC,[16],128 µg/mL
same,MIC,[16],128 µg/mL
same,MFC,"[17]; across eight species, read-out: Geometric mean MFC",140 µg/mL
same,MIC,"[17]; geometric mean across eight species, read-out: GM fungal MIC",69.8 µg/mL
same,MIC,[17]; read-out: Geometric mean MIC,69.8 µg/mL
same,MFC,[18],> 128 µg/mL
same,MIC,[18],> 128 µg/mL
same,FICI,[19]; FLC:INH combination,1.06
same,INH MICc,[19]; [20],8
same,FLC FD (MIC-MICc fold decrease),[19]; [21],1
same,INH FD (MIC-MICc fold decrease),[19]; FLC:INH combination,16
same,FICI,[19]; ITR:INH combination,1.06
same,INH MICc,[19]; [22],8
same,ITR FD (MIC-MICc fold decrease),[19]; [23],1
same,INH FD (MIC-MICc fold decrease),[19]; ITR:INH combination,16
same,FICI,[19]; KET:INH combination,1.06
same,INH MICc,[19]; [24],8
same,KET FD (MIC-MICc fold decrease),[19]; [25],1
same,INH FD (MIC-MICc fold decrease),[19]; KET:INH combination,16

# From article PMC12892976, “Alkylation-based optimization of antifungal FPPS inhibitors yields a potent, broad-spectrum lipophilic zoledronate derivative” (mBio, 2025)
